How the values were obtained:
wild-type leaf sections = assay: Leaf section test on RMOP culture medium containing glyphosate, wild type control; assay type: cell-based, tobacco; conditions: RMOP medium containing 100 μm glyphosate (Glyphosate-isopropylammonium); three-week-old cultures
Source text: (§1) Shown are three-week-old cultures initiated from Nt-pMHB125 and Nt-pMHB126 leaves and wild type control. The culture medium and general tissue culture protocols are described in references Svab and Maliga, 1993; and Lutz et al., 2006.
(§2) The ability of leaf sections or stem sections of plants to germinate and/or grow as green plants in a culture containing selective levels of herbicides is a reliable assay of glyphosate resistance (Ye et al. (2003) Plant Physiol., 133:402-410; Ye et al. (2001) Plant J., 25:261-270). Selective levels of glyphosate in the culture medium were in the range of 50 μm to 200 μm, to which plants expressing the CP4 EPSPS gene were resistant. Therefore, sections of the Nt-pMHB125, Nt-pMHB126 and Nt-pMHB127 leaves were inoculated onto RMOP medium containing 100 μm glyphosate (Glyphosate-isopropylammonium). […] Such high level of resistance was sufficient to protect the plants from glyphosate treatment under filed conditions. The new glyphosate resistance (GAT) genes, when expressed in plastids, enable efficient weed control with an environmentally friendly herbicide. Since plastids are not transmitted via pollen in most crops, the GAT gene will not be disseminated via pollen, providing an efficient containment tool (Bock, R. (2001) J. Mol. Biol., 312:425-438; Maliga, P. (2004) Annu. Rev. Plant Biol., 55:289-313).

[1] = test system: Nt-pMHB125 and Nt-pMHB126 leaves (tobacco cells expressing GAT in chloroplasts); assay: Leaf section test on RMOP culture medium containing glyphosate, plants expressing GAT in chloroplasts; assay type: cell-based
Source text: as §1, §2

O=C(O)CNCP(=O)(O)O [glyphosate, N-phosphonomethylglycine]
growth of wild-type leaf sections in the presence of the herbicide (wild-type leaf sections): failed to grow and bleached | resistance of tobacco cells expressing GAT in chloroplasts ([1]; 100 μM glyphosate in the RMOP culture medium, three-week-old cultures from Nt-pMHB125 and Nt-pMHB126 leaves): resistant | growth of Nt-pMHB125 and Nt-pMHB126 leaf sections in the presence of the herbicide ([1]; RMOP medium containing 100 μm glyphosate (Glyphosate-isopropylammonium), three-week-old cultures): formed abundantly proliferating green calli
